Measured values: patent publication US20140329682A1, “METHOD OF CONTROLLING WEED IN A SUGAR CANE FIELD” (SUMITOMO CHEMICAL COMPANY, LIMITED, priority 2011, published 2014)

What was measured:
sugar cane [1] = assay: Phytotoxicity on sugar cane, soil surface spray after planting (Example 4)
Text: (§1) The “phytotoxicity” evaluated herein is the damage characteristic determined to be due to a treated compound, and is clearly discriminated from the damage characteristic caused by a harmful animal or plant disease.
A 30 cm to 40 cm stem cutting of sugar cane is placed on a wet soil, and germination is stimulated. The stem cutting from which a bud has grown to about 1 cm is selected, and the length of the stem cutting is adjusted to be 3 cm so that the stem cutting has one node. A soil is packed into a plastic pot, and seeds of Amaranthus retroflexus are seeded thereon. The stem cutting of sugar cane is planted in the soil packed in the pot at a depth of 2 cm. […] Thereafter, the pot for a test is placed in a greenhouse.

Amaranthus retroflexus [2] = assay: Herbicidal activity, spray above weed before planting, insecticide-treated stem cutting (Example 7); type: in vivo; details: sprayed above weed, 3 cm stem cutting treated with clothianidin, thiamethoxiam, imidacloprid, dinotefuran, nitenpyram, acetamiprid or thiacloprid planted one week after treatment, four weeks after treatment
Text: A 30 cm to 40 cm stem cutting of sugar cane is placed on a wet soil, and germination is stimulated. The stem cutting from which a bud has grown to about 1 cm is selected, and the length of the stem cutting is adjusted to be 3 cm so that the stem cutting has one node. Clothianidin, thiamethoxiam, imidacloprid, dinotefuran, nitenpyram, acetamiprid or thiacloprid is adhered to the stem cutting.

Amaranthus retroflexus [3] = assay: Herbicidal activity, spray above weed one week before planting (Example 5); type: in vivo; details: sprayed above weed three weeks after seeding, 3 cm stem cutting planted one week after treatment, four weeks after treatment
sugar cane [4] = assay: Phytotoxicity on sugar cane, spray above weed one week before planting (Example 5)
Procedure: as §1
(§2) A soil is packed into a plastic pot, and seeds of Amaranthus retroflexus are seeded thereon. Thereafter, the pot is placed in a greenhouse, and the weed is grown.
(§3) A 30 cm to 40 cm stem cutting of sugar cane is placed on a wet soil, and germination is stimulated. The stem cutting from which a bud has been grown to about 1 cm is selected, and the length of the stem cutting is adjusted to be 3 cm so that the stem cutting has one node.
(§4) The pot for a test is placed in a greenhouse.

Amaranthus retroflexus [5] = assay: Herbicidal activity, spray above weed before planting, strobilurin-treated stem cutting (Example 9); type: in vivo; details: sprayed above weed, 3 cm stem cutting treated with kresoxim-methyl, azoxystrobin or another listed strobilurin fungicide planted one week after treatment, four weeks after treatment
Text: A 30 cm to 40 cm stem cutting of sugar cane is placed on a wet soil, and germination is stimulated. The stem cutting from which a bud has grown to about 1 cm is selected, and the length of the stem cutting is adjusted to be 3 cm so that the stem cutting has one node. Kresoxim-methyl, azoxystrobin, trifloxystrobin, fluoxastrobin, picoxystrobin, pyraclostrobin, dimoxystrobin, pyribencarb, metominostrobin, orysastrobin, enestrobin, pyraoxystrobin or pyrametostrobin is adhered to the stem cutting.

sugar cane [6] = assay: Phytotoxicity on sugar cane, spray above weed before planting, strobilurin-treated stem cutting (Example 9)
Procedure: as §1, §2
as §3, with “has” for “has been”, “node. Kresoxim-methyl, azoxystrobin, trifloxystrobin, fluoxastrobin, picoxystrobin, pyraclostrobin, dimoxystrobin, pyribencarb, metominostrobin, orysastrobin, enestrobin, pyraoxystrobin or pyrametostrobin is adhered to the stem cutting.” for “node.”
as §4

Amaranthus retroflexus [7] = assay: Herbicidal activity, soil surface spray, strobilurin-treated stem cutting (Example 8); type: in vivo; details: 3 cm stem cutting treated with kresoxim-methyl, azoxystrobin or another listed strobilurin fungicide, four weeks after treatment
Text: A 30 cm to 40 cm stem cutting of sugar cane is placed on a wet soil, and germination is stimulated. The stem cutting from which a bud has grown to about 1 cm is selected, and the length of the stem cutting is adjusted to be 3 cm so that the stem cutting has one node. Kresoxim-methyl, azoxystrobin, trifloxystrobin, fluoxastrobin, picoxystrobin, pyraclostrobin, dimoxystrobin, pyribencarb, metominostrobin, orysastrobin, enestrobin, pyraoxystrobin or pyrametostrobin is adhered to the stem cutting. A soil is packed into a plastic pot, and seeds of Amaranthus retroflexus are seeded thereon. The stem cutting of sugar cane treated with kresoxim-methyl, azoxystrobin, trifloxystrobin, fluoxastrobin, picoxystrobin, pyraclostrobin, dimoxystrobin, pyribencarb, metominostrobin, orysastrobin, enestrobin, pyraoxystrobin or pyrametostrobin is planted in the soil packed into the pot at a depth of 2 cm. […] Thereafter, the pot for a test is placed in a greenhouse.

sugar cane [8] = assay: Phytotoxicity on sugar cane, spray above weed before planting, metalaxyl-treated stem cutting (Example 13)
Procedure: as §1
A soil is packed into a plastic pot, and seeds of Amaranthus retroflexus are seeded thereon. Thereafter, a pot is placed in a greenhouse, and the weed is grown.
as §3, with “has” for “has been”, “node. Metalaxyl or metalaxyl-M is adhered to the stem cutting.” for “node.”
as §4

Amaranthus retroflexus [9] = assay: Herbicidal activity, soil surface spray after planting (Example 4); type: in vivo; details: 3 cm stem cutting, one node, soil surface spray on date of planting, four weeks after treatment
Amaranthus retroflexus [10] = assay: Herbicidal activity, spray above weed before planting, metalaxyl-treated stem cutting (Example 13); type: in vivo; details: sprayed above weed, 3 cm stem cutting treated with metalaxyl or metalaxyl-M planted one week after treatment, four weeks after treatment
Text: A 30 cm to 40 cm stem cutting of sugar cane is placed on a wet soil, and germination is stimulated. The stem cutting from which a bud has grown to about 1 cm is selected, and the length of the stem cutting is adjusted to be 3 cm so that the stem cutting has one node. Metalaxyl or metalaxyl-M is adhered to the stem cutting.

Amaranthus retroflexus [11] = assay: Herbicidal activity, soil surface spray, azole-fungicide-treated stem cutting (Example 10); type: in vivo; details: 3 cm stem cutting treated with azaconazole, bitertanol or another listed azole-type fungicide, four weeks after treatment
Text: A 30 to 40 cm stem cutting of sugar cane is placed on a wet soil, and germination is stimulated. The stem cutting from which a bud has grown to about 1 cm is selected, and the length of the stem cutting is adjusted to be 3 cm so that the stem cutting has one node. Azaconazole, bitertanol, bromoconazole, cyproconazole, difenoconazole, diniconazole, epoxyconazole, fenbuconazole, fluquinconazole, flusilazole, flutriafol, hexaconazole, imibenconazole, ipconazole, metconazole, myclobutanil, penconazole, propiconazole, prothioconazole, simeconazole, tebuconazole, tetraconazole, triadimenol, triticonazole, fenarimol, nuarimol, pyrifenox, imazalil, oxpoconazole fumarate, pefurazoate, procloraz or triflumizole is adhered to the stem cutting. A soil is packed into a plastic pot, and seeds of Amaranthus retroflexus are seeded thereon. The stem cutting of sugar cane treated with azaconazole, bitertanol, bromoconazole, cyproconazole, difenoconazole, diniconazole, epoxyconazole, fenbuconazole, fluquinconazole, flusilazole, flutriafol, hexaconazole, imibenconazole, ipconazole, metconazole, myclobutanil, penconazole, propiconazole, prothioconazole, simeconazole, tebuconazole, tetraconazole, triadimenol, triticonazole, fenarimol, nuarimol, pyrifenox, imazalil, oxpoconazole fumarate, pefurazoate, procloraz or triflumizole is planted in the soil packed into the pot at a depth of 2 cm. […] Thereafter, the pot for a test is placed in a greenhouse.

sugar cane [12] = assay: Phytotoxicity on sugar cane, soil surface spray on day of planting (Example 1); type: in vivo; details: four weeks after treatment, scale 0 to 100
Procedure: The stem cutting from which a bud had grown to about 1 cm was selected, and the length of the stem cutting was adjusted to be 3 cm, 15 cm or 25 cm. The stem cutting of 3 cm or 15 cm had only one node, and the stem cutting of 25 cm had two nodes. A soil was packed into a 32 cm×25 cm×11 cm plastic pot, and seeds of Amaranthus retroflexus were seeded thereon. […] On the date when the stem cutting was planted, and after planting of the stem cutting, a water-diluted liquid of a flumioxazin water dispersible granule (water dispersible granule containing 51% floumioxazin, trade name: Valor SX, manufactured by Valent USA Corporation) (100 ppm or 250 ppm) was uniformly sprayed on the soil surface with a sprayer at an amount described in Table 1. Thereafter, the pot for a test was placed in a greenhouse. Four weeks after treatment with flumioxazin, phytotoxicity on sugar cane and the herbicidal activity against Amaranthus retroflexus were determined.

[13] = Example 5, sprayed above weed three weeks after seeding, 3 cm stem cutting planted one week after treatment, four weeks after treatment
[14] = Example 9, sprayed above weed, 3 cm stem cutting treated with kresoxim-methyl, azoxystrobin or another listed strobilurin fungicide planted one week after treatment, four weeks after treatment
[15] = Example 13, sprayed above weed, 3 cm stem cutting treated with metalaxyl or metalaxyl-M planted one week after treatment, four weeks after treatment

| Structure (SMILES) | phytotoxicity (sugar cane [1]; in vivo) | herbicidal activity against Amaranthus retroflexus (Amaranthus retroflexus [2]) | herbicidal activity against Amaranthus retroflexus (Amaranthus retroflexus [3]) | phytotoxicity (sugar cane [4]; in vivo) | herbicidal activity against Amaranthus retroflexus (Amaranthus retroflexus [5]) | phytotoxicity (sugar cane [6]; in vivo) | herbicidal activity against Amaranthus retroflexus (Amaranthus retroflexus [7]) | phytotoxicity (sugar cane [8]; in vivo) | herbicidal activity against Amaranthus retroflexus (Amaranthus retroflexus [9]) | herbicidal activity against Amaranthus retroflexus (Amaranthus retroflexus [10]) | herbicidal activity against Amaranthus retroflexus (Amaranthus retroflexus [11]) | phytotoxicity (sugar cane [4]; [13]) | phytotoxicity (sugar cane [6]; [14]) | phytotoxicity (sugar cane [8]; [15]) | also measured |
| --- | --- | --- | --- | --- | --- | --- | --- | --- | --- | --- | --- | --- | --- | --- | --- |
| CC(C)Oc1cc(-n2nc(C(C)(C)C)oc2=O)c(Cl)cc1Cl [oxadiazon] | significant phytotoxicity on sugar cane is not observed | the controlling effect on a weed can be confirmed | the controlling effect on a weed can be confirmed | significant phytotoxicity on sugar cane is not found | the controlling effect on a weed can be confirmed | significant phytotoxicity on sugar cane is not observed | the controlling effect on a weed can be confirmed | significant phytotoxicity on sugar cane is not observed | the controlling effect on a weed can be confirmed | the controlling effect on a weed can be confirmed | the control effect on a weed can be confirmed |  |  |  |  |
| C#CCN1C(=O)COc2cc(F)c(N3C(=O)C4=C(CCCC4)C3=O)cc21 [Flumioxazin, flumioxazin] |  | the controlling effect on a weed can be confirmed | the controlling effect on a weed can be confirmed |  | the controlling effect on a weed can be confirmed |  | the controlling effect on a weed can be confirmed |  |  | the controlling effect on a weed can be confirmed | the control effect on a weed can be confirmed | significant phytotoxicity on sugar cane is not found | significant phytotoxicity on sugar cane is not observed | significant phytotoxicity on sugar cane is not observed | Phytotoxicity on sugar cane (sugar cane [12]; 50 g (active ingredient)/ha, stem cutting 3 cm (one node)): 0; Phytotoxicity on sugar cane (sugar cane [12]; 50 g (active ingredient)/ha, stem cutting 15 cm (one node)): 5; Phytotoxicity on sugar cane (sugar cane [12]; 50 g (active ingredient)/ha, stem cutting 25 cm (two nodes)): 20; Phytotoxicity on sugar cane (sugar cane [12]; 125 g (active ingredient)/ha, stem cutting 3 cm (one node)): 0; Phytotoxicity on sugar cane (sugar cane [12]; 125 g (active ingredient)/ha, stem cutting 15 cm (one node)): 5; Phytotoxicity on sugar cane (sugar cane [12]; 125 g (active ingredient)/ha, stem cutting 25 cm (two nodes)): 20 |
| Cc1nn(-c2cc(NS(C)(=O)=O)c(Cl)cc2Cl)c(=O)n1C(F)F [sulfentrazone] | significant phytotoxicity on sugar cane is not observed | the controlling effect on a weed can be confirmed | the controlling effect on a weed can be confirmed | significant phytotoxicity on sugar cane is not found | the controlling effect on a weed can be confirmed | significant phytotoxicity on sugar cane is not observed | the controlling effect on a weed can be confirmed | significant phytotoxicity on sugar cane is not observed | the controlling effect on a weed can be confirmed | the controlling effect on a weed can be confirmed | the control effect on a weed can be confirmed |  |  |  |  |
| CCOc1cc(Oc2ccc(C(F)(F)F)cc2Cl)ccc1[N+](=O)[O-] [oxyfluorfen] |  | the controlling effect on a weed can be confirmed | the controlling effect on a weed can be confirmed |  | the controlling effect on a weed can be confirmed |  | the controlling effect on a weed can be confirmed |  | the controlling effect on a weed can be confirmed | the controlling effect on a weed can be confirmed | the control effect on a weed can be confirmed | significant phytotoxicity on sugar cane is not found | significant phytotoxicity on sugar cane is not observed | significant phytotoxicity on sugar cane is not observed | phytotoxicity (sugar cane [1]; Example 4, 3 cm stem cutting, one node, soil surface spray on date of planting, four weeks after treatment): significant phytotoxicity on sugar cane is not observed |
| C#CCN1C(=O)COc2cc(F)c(-n3c(=O)n(C)c(=S)n(C)c3=O)cc21 [compound of the formula (I)] | significant phytotoxicity on sugar cane is not observed | the controlling effect on a weed can be confirmed | the controlling effect on a weed can be confirmed | significant phytotoxicity on sugar cane is not found | the controlling effect on a weed can be confirmed |  | the controlling effect on a weed can be confirmed | significant phytotoxicity on sugar cane is not observed | the controlling effect on a weed can be confirmed | the controlling effect on a weed can be confirmed | the control effect on a weed can be confirmed |  | significant phytotoxicity on sugar cane is not observed |  |  |
